Like-named read-outs stand apart in the source and are kept apart here. Values belong to the compound of their own block, whether it stands above or below them.
Assays:
yeast cells = details: 1 mM nitrite, light 3 doses of 6.4 J/cm^2
Description: The effects of broad spectrum light on the expression of the nuclear COX genes for Cco and the overall level of cellular respiration were examined. Because cytochrome c oxidase is a major regulator of respiration and because the nuclear genes (COX) for cytochrome c oxidase are highly regulated by a variety of environmental factors and function to regulate the overall activity of Cco, their level of expression provides a useful measure for the long-term effects of light on Cco. Similarly, the rate of respiration per se provides a direct measure of the effects of light on the entire respiratory chain.
Yeast cells were grown in liquid media for three hours, which is equivalent to the time it takes for one cell division. […]
Light from a Broadband 50 watt Xenon/Halogen Floodlight was administered at the beginning of each hour for a total of 3 doses, each at 6.4 J/cm^2 (105 mW/cm^2). After 3 hours, cells were harvested and analyzed for measurement of gene expression (by quantitiative PCR), or respiration (by polarographic oxygen consumption). qPCR was performed with primers designed for COX of Cco subunits COX4, COX5a, COX5b, COX6, and COX8. Each sample was run in duplicate and gene expression was quantified by normalizing to PMAI, a yeast gene that is expressed at constant levels, irrespective of the environment in which cells are grown.

NT2 cells = test: Oxidative stress induced APP processing in NT2 cells; format: cell-based; details: for APP processing as assessed by Aβ1-42 production: FIG. 17
Description: Broadband light reverses oxidative stress induced APP processing to Aβ1-42. […] Broad band light (7.5 Joules total dose) reversed the oxidative stress affects back to control levels (FIG. 17).
Broadband light reverses oxidative stress induced APP processing to Aβ1-40. […] Broad band light (7.5 Joules total dose) reversed the oxidative stress affects back to control levels (FIG. 18).

mitochondrial Cco = molecular target: T1, mitochondrial Cco (Mus musculus, UniProt P00397); test: Cco/NO activity (nitrite-dependent NO synthesis) in cerebrum mitochondria, NO electrode; format: biochemical; details: hypoxic conditions, ascorbate/TMPD as electron donor pair, cerebrum mitochondria of 7-12 day old mice
T1 construct: These experiments used mitochondria isolated from the cerebrum of 7-12 day old mice; from tissue; host or cells: mitochondria from mouse cerebrum (7-12 day old mice)
Description: We have studied Cco/NO activity in both human endothelial cells and mouse brain nervous tissue. All of the assays for Cco/NO activity were done in a closed chamber, as described elsewhere (Castello et al. 2006, Cell Metabolism 3, 277-287). Cells or mitochondria were allowed to respire and consume oxygen all of the oxygen in the chamber before the addition of nitrite, which initiated the reaction.
Results with mouse nerve cells. These experiments used mitochondria isolated from the cerebrum of 7-12 day old mice. Using the same assay we used for endothelial cell mitochondria, we assayed Cco/NO activity under hypoxic conditions with ascorbate/TMPD as an electron donor pair. […] To confirm that we had measured NO synthesis we added PTIO, an NO scavenger.

SMILES: O=NO [+Nitrite, nitrite]
Oxygen Consumption (yeast cells; Hypoxia (1% O2)): 14.27 ± 0.26 nmol/min/mg cells | Oxygen Consumption (yeast cells; Normoxia): 15.21 ± 0.47 nmol/min/mg cells

SMILES: CCCCCC(O)/C=C/C=O (stereo not drawn) [FINE]
APP processing as assessed by Aβ1-42 production (NT2 cells): dramatic increases | APP processing as assessed by Aβ1-40 production (NT2 cells; FIG. 18): dramatic increases

SMILES: OO [H2O2]
APP processing as assessed by Aβ1-42 production (NT2 cells): dramatic increases

Removal of the NO produced by mitochondrial Cco (NO scavenger) (mitochondrial Cco): completely removes the NO produced
SMILES: CC1(C)N([O])C(c2ccccc2)=[N+]([O-])C1(C)C [PTIO]

Reference: patent US20160008627A1, “METHODS AND DEVICES FOR VISIBLE LIGHT MODULATION OF MITOCHONDRIAL FUNCTION IN HYPOXIA AND DISEASE” (Clarimedix Inc., priority 2008, published 2016)
